Results from patent US5916920A, “3-substituted Bicyclo[3.1.0]hexane-6-carboxylic acids” (Eli Lilly and Company, priority 1996, dated 1999).

Legend:
[1] = mouse elevated plus maze model; type: in vivo
[2] = mouse conditioned active avoidance response model; type: in vivo
Text: (Pfeiffer & Jenney, Ann. N.Y. Acad. Sci., 66:[…], 1957; Maffii, J. Pharm. Pharmacol., 11: 129-139, 1959; Cook & Weidley, Ann; N.Y. Acad. Sci., 66: […], 1957; Janke, Handbook of Experimental Pharmacology, Vol. 55/I, New York: Plenum Press, 1978).

[3] = system: metabotropic glutamate receptors; test: selective displacement of 1S,3R-ACPD-sensitive [^3 H]glutamate binding to rat brain cell membranes; conditions: crude membranes of rat forebrain
Procedure: The binding of [^3 H]glutamate was conducted with crude membranes of rat forebrain as described by Schoepp and True. Schoepp and True, Neuroscience Lett., 145, 100-104 (1992) and Wright et al., J. Neurochemisty 63: 938-945 (1994).

Cc1cccc(C[C@@H]2C[C@H]3[C@H](C(=O)O)[C@H]3[C@]2(N)C(=O)O)c1 (relative stereo) [Example 4, 1SR,2SR,3SR,5RS,6SR-Amino-3-((3-methyl)benzyl)bicyclo[3.1.0]hexane-2,6-dicarboxylic acid]
anxiolytic effect in the mouse elevated plus maze model [1]: anxiolytic effect

N[C@@]1(C(=O)O)[C@H](Cc2ccc(F)c(F)c2F)C[C@H]2[C@H](C(=O)O)[C@H]21 (relative stereo) [Example 25, 1SR,2SR,3SR,5RS,6SR-2-Amino-3-((2,3,4-trifluoro)benzyl)bicyclo[3.1.0]hexane-2,6-dicarboxylic acid]
neuroleptic properties in the mouse conditioned active avoidance response model [2]: neuroleptic properties

Mixture of 1SR,2SR,3RS,5RS,6SR-2-amino-3-(3-phenylpropyl)bicyclo[3.1.0]-hexane-2,6-dicarboxylic acid and 1SR, 2RS, 3RS, 5RS, 6SR-2-amino-3-(3-phenylpropyl)bicyclo[3.1.0]hexane-2,6-dicarboxylic acid [Example 1]
IC50 [3]: 320 nM
